Laboratory results from patent US4975434A, “Antiviral and anticancer cyclopentenyl cytosine” (priority 1989, dated 1990).
Converted amounts (≈) assume the structure as drawn. “And” between values parts separate entries of the source, which are not always exact repeats. Identical values can stand only once. “Also recorded” adds a separate entry of the source.

Legend:
[1] = tested on: Yellow Fever virus, strain Asibi; assay: microbe, parasite or virus in culture; format: cell-based, Yellow Fever virus; host Vero cells
[2] = tested on: Huf (human diploid foreskin cells); assay: Toxicity to Huf host cells (gross cell morphology) in the VZV assay; format: cell-based
[3] = tested on: CTP pools; assay: Nucleotide (CTP, UTP, ATP, GTP) levels in treated cells (HL-60); format: cell-based, human
[4] = tested on: LOX Melanoma; assay: Human tumor xenograft in athymic mice, LOX melanoma (intraperitoneal)
[5] = tested on: P388 leukemia; assay: In vivo antitumor test, P388 leukemia in mice
[6] = tested on: Punta Toro virus, strain Adames; assay: microbe, parasite or virus in culture; format: cell-based, Punta Toro virus; host Vero cells
[7] = tested on: Varicella-Zoster virus, isolate DM625; assay: Varicella-Zoster Virus (VZV) Plaque Reduction Assay; format: cell-based
[8] = tested on: Herpes simplex type 1 (TK-), strain HF; assay: microbe, parasite or virus in culture; format: cell-based
[9] = tested on: HL-60 DNA synthesis / RNA synthesis; assay: Inhibition of nucleic acid (DNA, RNA) synthesis in HL-60 cells; format: cell-based, human
[10] = tested on: M5076 sarcoma; assay: In vivo antitumor test, M5076 sarcoma in mice
[11] = tested on: P388/ara-C (Arabinosyl cytosine resistant P388 leukemia); assay: In vivo antitumor test, ara-C resistant P388 leukemia in mice; conditions: for activity against ara-C resistant P388: result in words
[12] = tested on: tumors; assay: Antitumor activity (general statement); conditions: general statement
[13] = tested on: Herpes simplex type 2, strain MS; assay: Cytopathogenic inhibition test, HSV-2; format: cell-based
[14] = tested on: Janapese Encephalitis virus, strain Najayama; assay: Antiviral test in vitro, Japanese encephalitis virus; format: cell-based, Japanese encephalitis virus; host Vero cells
[15] = tested on: Influenza (Hong Kong), strain A2 /Aichi/2/68; assay: microbe, parasite or virus in culture; format: cell-based, Influenza virus; host MDCK (Madin Darby canine kidney cells)
[16] = tested on: phosphorylation of uridine; assay: Inhibition of uridine phosphorylation
[17] = tested on: MRC5 (diploid human embryonic lung cells); assay: Toxicity to MRC5 host cells (gross cell morphology) in the CMV assay
[18] = tested on: L1210 leukemia; assay: In vivo antitumor test, L1210 leukemia in mice; conditions: for Number of 60 day survivors per test group: QD1-9
[19] = tested on: Herpes simplex type 1 (TK+), strain E-377; assay: Cytopathogenic inhibition test, HSV-1 TK+; format: cell-based
[20] = tested on: c-myc mRNA; assay: c-myc mRNA levels in HL-60 cells; format: cell-based, human
[21] = minimum toxic drug concentration / ID50, Vero cells
[22] = Table II Experiment 1, tumor IP, IP QD1-9, OD 1.0 mg/kg/injection
[23] = Table II Experiment 2, tumor IP, IP QD1-9, OD 1.5 mg/kg/injection
[24] = Table II Experiment 1, tumor IP, IP QD1-13, OD 0.5 mg/kg/injection
[25] = Table II Experiment 1, tumor IP, IP QD1-9, OD 1.5 mg/kg/injection
[26] = IP L1210, IP treatment daily days 1-9, optimum dose 1 mg/kg/inj (Table I)
[27] = IP L1210, IP treatment every 4th day, days 1, 5, 9, optimum dose 4 mg/kg/inj
[28] = IP L1210, IP treatment every 3 hr x 8, days 1, 5, 9, optimum dose 0.5 mg/kg/inj
[29] = Table II Experiment 1, tumor IP, oral drug administration, OD 2.25 mg/kg/injection
[30] = Table II Experiment 2, tumor IP, IP QD1-9, OD 1.0 mg/kg/injection
[31] = Table II Experiment 2, tumor IP, oral drug administration, OD 2.25 mg/kg/injection
[32] = Table II Experiment 2, tumor SC, IP QD1-9, OD 1.0 mg/kg/injection

## Nc1ccn([C@@H]2C=C(CO)[C@@H](O)[C@H]2O)c(=O)n1 [CPE-C]
[1]; Vero cells, strain Asibi
  VR (virus rating): 0.9
[1]; Yellow fever virus, Vero, read-out: ID50
  IC50: 5.05 µg/mL (≈ 21.1 µM)
[1]; [21]
  TI (therapeutic index): 0.1
[2]; 320 μg/ml
  Host cell toxicity (gross cell morphology): Slightly toxic
[2]; 100 and 32 μg/ml
  Host cell toxicity (gross cell morphology): Very slightly toxic
[3]; HL-60
  CTP levels following drug removal: sustained reduction in CTP levels
[3]; during CPE-C treatment
  level of CTP: rapid and pronounced inhibition
[3]; during CPE-C treatment, HL-60
  half-life for the disappearance of CTP: 1.5 to 2 h
  level of UTP, ATP or GTP: not of UTP, ATP or GTP
[3]; treated cells
  level of CTP pools: near total abrogation of CTP pools
[4]; 2.25 mg/kg, QD 1-9
  tumor cell kill: two-log tumor cell kill
[4]; LOX xenograft
  potency relative to 3DU: about 100 times
[4]; Table III Experiment 1, tumor IP, IP QD1-9, OD 1.0 mg/kg/injection
  % ILS: 119%
[4]; Table III Experiment 2, tumor IP, IP QD1-9, OD 2.25 mg/kg/injection
  % ILS: 80%
[4]; Table IV, CPE-C 1.5 mg/kg, QD1-9
  % ILS: 58%
[4]; Table IV, CPE-C 2.25 mg/kg, QD1-9
  % ILS: 80%
[4]; in vivo
  difference in tumor burden between CPE-C and 3DU: five-log difference in tumor burden
[4]; intraperitoneally implanted
  increase in life span: about 100%
[4]; result in words
  activity: Good activity
[5]; [22]
  % ILS: 88%
  LCK: 0.9 log
[5]; [23]
  % ILS: 69%
  LCK: 0.1 log
[5]; result in words
  activity: only modest activity
[6]
  VR (virus rating): 1.5
[6]; Punta Toro virus, Vero, read-out: ID50
  IC50: 1.01 µg/mL (≈ 4.22 µM)
[6]; [21]
  TI (therapeutic index): 0.3
[6]; result in words
  antiviral activity: Good activity; also recorded: Virus ratings greater than two
[7]; Human alphaherpesvirus 3, 144 h, 0.01 μg/ml, Huf cells
  inhibition at 0.01 µg/mL: 0%
[7]; Human alphaherpesvirus 3, 144 h, 0.032 μg/ml, Huf cells
  inhibition at 0.032 µg/mL: 3%
[7]; Human alphaherpesvirus 3, 144 h, 0.1 μg/ml, Huf cells
  inhibition at 0.1 µg/mL: 21%
[7]; Human alphaherpesvirus 3, 144 h, 0.32 μg/ml, Huf cells
  inhibition at 0.32 µg/mL: 33%
[7]; Human alphaherpesvirus 3, 144 h, 1.0 μg/ml, Huf cells
  inhibition at 1 µg/mL: 36%
[7]; Human alphaherpesvirus 3, 144 h, 3.2 μg/ml, Huf cells
  inhibition at 3.2 µg/mL: 33%
[7]; Human alphaherpesvirus 3, 144 h, 10 μg/ml, Huf cells
  inhibition at 10 µg/mL: 33%
[7]; Human alphaherpesvirus 3, 144 h, 100 μg/ml, Huf cells
  inhibition at 100 µg/mL: 41%
[7]; Human alphaherpesvirus 3, 144 h, 320 μg/ml, Huf cells
  inhibition at 320 µg/mL: 36%
[7]; result in words
  antiviral activity: Potent activity; also recorded: Activity was observed for both compounds
[8]; Vero cells, strain HF, two determinations
  VR (virus rating): 3.8 and 2.7
[8]; result in words
  antiviral activity: greater than arabinosyl adenine (ara-A); also recorded: Potent activity
[9]; 10^-7 M
  RNA synthesis: inhibited to a lesser extent
[9]; 24 hrs. after exposure to 10^-7 M
  DNA synthesis, % of control levels: 10%
[10]; [24]
  % ILS: 5%
  LCK: -2.0 log
[10]; result in words
  activity: inactive
[11]; [25]
  % ILS: 165%
  LCK: > 6.5 log
  Number of 30 day survivors out of six mice: 3
[11]; [23]
  % ILS: 133%
  LCK: 3.8 log
[11]
  activity against ara-C resistant P388: collaterally sensitive
[11]; listed as cyclopentenyl cytosine
  activity against ara-C resistant P388: significant antitumor activity
[12]
  activity against ara-C resistant tumors and human tumors grown in mice: particularly potent and active agents
[13]; Human alphaherpesvirus 2, Vero cells, strain MS, inhibition of virus-induced cytopathogenic effects, read-out: ID50 (the source's name)
  IC50: 2.7 µg/mL (≈ 11.3 µM)
[13]; Vero cells, strain MS
  VR (virus rating): 2.3
[13]; result in words
  antiviral activity: Potent activity
[14]; Japanese encephalitis virus, Vero, read-out: ID50
  IC50: 0.1 µg/mL (≈ 0.418 µM)
[14]; Vero cells, strain Najayama
  VR (virus rating): 2.4
[14]; [21]
  TI (therapeutic index): 3.1
[14]; result in words
  antiviral activity: Good activity; also recorded: greater potency and higher therapeutic index than Ribavarin
[15]
  VR (virus rating): 2.4
  antiviral activity: Good activity; also recorded: Virus ratings greater than two
[15]; MDCK, in Canis lupus familiaris, read-out: ID50
  IC50: 18.2 µg/mL (≈ 76.1 µM)
[16]
  inhibition of phosphorylation of uridine: inhibited competitively the phosphorylation of uridine
[17]; 320 μg/ml
  Host cell toxicity (gross cell morphology): Slightly toxic
[17]; each of 100, 32, 10, 3.2 and 1.0 μg/ml
  Host cell toxicity (gross cell morphology): Very slightly toxic
[18]; IP 1.0 mg/kg, QD 1-9, 30-day, 1.5 mg/kg
  long term survivors: Multiple 30-day survivors; also recorded: multiple long term survivors
[18]; [26]
  ILS (median percent increase in life span): 124%
  LCK (approximate log cell kill at the end of treatment): 3.0 log
[18]; [27]
  ILS (median percent increase in life span): 91%
  LCK (approximate log cell kill at the end of treatment): 0.1 log
[18]; [28]
  ILS (median percent increase in life span): 116%
  LCK (approximate log cell kill at the end of treatment): 1.5 log
[18]; QD 1-9, Q4D, Q3Hx8
  schedule dependency: no significant schedule dependency
[18]; Table II Experiment 1, tumor IC (intracerebral), IP QD1-9, OD 1.5 mg/kg/injection
  % ILS: 45%
[18]; [22]
  % ILS: 212%
  LCK: > 6.0 log
  Number of 30 day survivors out of six mice: 4
[18]; [29]
  % ILS: 125%
  LCK: 1.9 log
[18]; Table II Experiment 1, tumor SC, IP QD1-9, OD 1.5 mg/kg/injection
  % ILS: 109%
[18]; Table II Experiment 2, tumor IC (intracerebral), IP QD1-9, OD 1.0 mg/kg/injection
  % ILS: 42%
[18]; [30]
  % ILS: 201%
  LCK: > 5.8 log
  Number of 30 day survivors out of six mice: 2
[18]; [31]
  % ILS: 57%
  LCK: -2.2 log
[18]; [32]
  % ILS: 83%
  Number of 30 day survivors out of six mice: 1
[18]; Table IV, CPE-C 1.0 mg/kg
  Number of 60 day survivors per test group: 1/10
[18]; Table IV, CPE-C 1.0 mg/kg, QD1-9, terminated day 60
  % ILS: 116%
[18]; Table IV, CPE-C 1.5 mg/kg
  Number of 60 day survivors per test group: 2/9
[18]; Table IV, CPE-C 1.5 mg/kg, QD1-9, terminated day 60
  % ILS: 171%
[18]; Table IV, CPE-C 2.25 mg/kg, QD1-9, terminated day 60
  % ILS: 146%
[18]; in vivo antitumor experiments
  potency relative to carbodine, in vivo antitumor: A similar potency difference
[18]; initial in vivo tests
  activity and potency relative to carbodine: significantly greater levels of activity and potency than carbodine
[18]; intracerebral L1210, text
  ILS: about 40%
[18]; standard L1210 leukemia
  activity, head to head comparison with 3DU: significantly better
[19]; Human alphaherpesvirus 1, Vero cells, strain E-377, inhibition of virus-induced cytopathogenic effects, read-out: ID50 (the source's name)
  IC50: 0.3 µg/mL (≈ 1.25 µM)
[19]; Vero cells, strain E-377
  VR (virus rating): 3.8
[19]; result in words
  antiviral activity: greater than arabinosyl adenine (ara-A); also recorded: Potent activity
[20]
  inhibition of c-myc mRNA levels: more pronounced than the reduction in total cellular RNA synthesis; also recorded: reduction of c-myc RNA levels
